Common to all, as to type: cell-based
Test [1] has as its target T1, human TLR9 (Homo sapiens, UniProt Q9NR96).
T1 construct: host or cells: HEK-Blue cells
T1 sequence (Q9NR96 26-1032): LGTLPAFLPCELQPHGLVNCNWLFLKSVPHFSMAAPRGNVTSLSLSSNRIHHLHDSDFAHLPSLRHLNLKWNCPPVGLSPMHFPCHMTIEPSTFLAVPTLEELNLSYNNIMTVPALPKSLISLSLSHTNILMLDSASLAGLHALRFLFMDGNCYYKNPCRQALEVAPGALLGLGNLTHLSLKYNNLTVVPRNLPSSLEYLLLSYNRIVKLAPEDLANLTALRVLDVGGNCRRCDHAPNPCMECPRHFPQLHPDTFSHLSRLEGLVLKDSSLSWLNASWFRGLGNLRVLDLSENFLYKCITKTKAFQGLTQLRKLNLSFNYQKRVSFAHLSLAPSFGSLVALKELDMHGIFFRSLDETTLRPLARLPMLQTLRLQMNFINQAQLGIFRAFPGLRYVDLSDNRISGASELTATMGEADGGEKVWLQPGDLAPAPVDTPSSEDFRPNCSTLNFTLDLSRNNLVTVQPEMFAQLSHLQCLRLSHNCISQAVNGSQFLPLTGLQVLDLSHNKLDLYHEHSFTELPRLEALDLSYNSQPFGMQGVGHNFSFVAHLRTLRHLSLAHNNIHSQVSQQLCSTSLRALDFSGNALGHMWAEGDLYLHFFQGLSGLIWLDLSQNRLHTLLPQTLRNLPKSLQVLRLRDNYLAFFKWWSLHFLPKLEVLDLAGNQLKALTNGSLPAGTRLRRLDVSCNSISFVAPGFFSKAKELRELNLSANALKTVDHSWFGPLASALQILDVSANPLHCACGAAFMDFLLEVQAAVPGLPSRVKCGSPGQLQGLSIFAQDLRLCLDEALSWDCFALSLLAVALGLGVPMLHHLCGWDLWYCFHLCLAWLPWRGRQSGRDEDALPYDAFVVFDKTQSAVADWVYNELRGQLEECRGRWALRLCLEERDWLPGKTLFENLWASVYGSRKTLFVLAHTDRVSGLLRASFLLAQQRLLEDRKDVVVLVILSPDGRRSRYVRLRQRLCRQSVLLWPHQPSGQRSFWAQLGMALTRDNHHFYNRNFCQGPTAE
Nature of the test: TLR9 inhibition reporter assay (HEK-Blue, SEAP). The note with it: HEK-Blue cells overexpressing human TLR9, ligand ODN2006 200 nM, 22 hour incubation. On the procedure:
(§1) TLR7/8/9 Inhibition Reporter Assays
(§2) HEK-Blue™-cells (Invivogen) overexpressing human TLR7. TLR8 or TLR9 receptors were used for screening inhibitors of these receptors using an inducible SEAP (secreted embryonic alkaline phosphatase) reporter gene under the control of the IFN-β minimal promoter fused to five NF-κB and AP-1-binding sites. Cells are seeded into Greiner 384 well plates (15000 cells per well) that are pre dispensed (by ECHO) with testing compounds in DMSO to yield a final dose response concentration range of 0.85 nM-50 μM. After a 60 minute compound pre-treatment in 37 degree incubator, the cells are then stimulated with a TLR7 ligand (gardiquimod at a final concentration of 2.5 μM), TLR8 ligand (R848 at a final concentration of 14.25 μM) or TLR9 ligand (ODN2006 at a final concentration of 200 nM) to activate NF-κB and AP-1 which induce the production of SEAP. After a 22 hour incubation at 37° C., 5% CO2, SEAP levels are determined with the addition of HEK-Blue™ Detection reagent (Invivogen), a cell culture medium that allows for detection of SEAP, according to manufacturer's specifications. The percent inhibition is determined as the % reduction in the HEK-Blue signal present in […].

In test [2] the target is T2, human TLR8 (Homo sapiens, UniProt Q9NR97).
T2 construct: host or cells: HEK-Blue cells
T2 sequence (Q9NR97 27-1041): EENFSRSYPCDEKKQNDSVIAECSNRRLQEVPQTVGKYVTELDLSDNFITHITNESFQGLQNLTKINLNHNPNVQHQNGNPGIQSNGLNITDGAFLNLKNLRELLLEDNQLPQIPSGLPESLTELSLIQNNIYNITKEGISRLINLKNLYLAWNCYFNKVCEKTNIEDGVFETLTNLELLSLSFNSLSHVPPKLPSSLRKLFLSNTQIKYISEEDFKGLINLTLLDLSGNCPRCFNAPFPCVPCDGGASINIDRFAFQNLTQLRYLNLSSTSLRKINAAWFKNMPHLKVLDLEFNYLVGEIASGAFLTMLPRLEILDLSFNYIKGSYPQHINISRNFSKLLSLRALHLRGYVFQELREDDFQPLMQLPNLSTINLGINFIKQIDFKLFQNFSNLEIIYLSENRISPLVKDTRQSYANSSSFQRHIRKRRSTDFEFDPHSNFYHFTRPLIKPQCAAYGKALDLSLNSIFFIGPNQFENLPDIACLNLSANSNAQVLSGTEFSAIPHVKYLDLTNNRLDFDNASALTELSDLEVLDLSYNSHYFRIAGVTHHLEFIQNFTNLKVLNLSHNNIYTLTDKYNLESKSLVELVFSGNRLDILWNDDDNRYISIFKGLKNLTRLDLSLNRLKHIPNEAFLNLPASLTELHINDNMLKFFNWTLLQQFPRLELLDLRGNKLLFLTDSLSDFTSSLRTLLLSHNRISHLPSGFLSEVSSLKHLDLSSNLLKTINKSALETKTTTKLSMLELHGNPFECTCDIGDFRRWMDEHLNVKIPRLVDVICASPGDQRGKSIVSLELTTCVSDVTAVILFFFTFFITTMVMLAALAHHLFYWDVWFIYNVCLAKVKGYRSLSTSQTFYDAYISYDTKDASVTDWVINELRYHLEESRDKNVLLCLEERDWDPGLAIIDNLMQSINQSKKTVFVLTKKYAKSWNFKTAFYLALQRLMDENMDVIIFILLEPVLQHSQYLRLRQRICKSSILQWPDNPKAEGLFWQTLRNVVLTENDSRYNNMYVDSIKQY
Nature of the test: TLR8 inhibition reporter assay (HEK-Blue, SEAP). Particulars: HEK-Blue cells overexpressing human TLR8, ligand R848 14.25 μM, 22 hour incubation. The procedure:
as §1, §2

Test [3] addresses T3, human TLR7 (Homo sapiens, UniProt Q9NYK1).
T3 construct: host or cells: HEK-Blue cells
T3 sequence (Q9NYK1 27-1049): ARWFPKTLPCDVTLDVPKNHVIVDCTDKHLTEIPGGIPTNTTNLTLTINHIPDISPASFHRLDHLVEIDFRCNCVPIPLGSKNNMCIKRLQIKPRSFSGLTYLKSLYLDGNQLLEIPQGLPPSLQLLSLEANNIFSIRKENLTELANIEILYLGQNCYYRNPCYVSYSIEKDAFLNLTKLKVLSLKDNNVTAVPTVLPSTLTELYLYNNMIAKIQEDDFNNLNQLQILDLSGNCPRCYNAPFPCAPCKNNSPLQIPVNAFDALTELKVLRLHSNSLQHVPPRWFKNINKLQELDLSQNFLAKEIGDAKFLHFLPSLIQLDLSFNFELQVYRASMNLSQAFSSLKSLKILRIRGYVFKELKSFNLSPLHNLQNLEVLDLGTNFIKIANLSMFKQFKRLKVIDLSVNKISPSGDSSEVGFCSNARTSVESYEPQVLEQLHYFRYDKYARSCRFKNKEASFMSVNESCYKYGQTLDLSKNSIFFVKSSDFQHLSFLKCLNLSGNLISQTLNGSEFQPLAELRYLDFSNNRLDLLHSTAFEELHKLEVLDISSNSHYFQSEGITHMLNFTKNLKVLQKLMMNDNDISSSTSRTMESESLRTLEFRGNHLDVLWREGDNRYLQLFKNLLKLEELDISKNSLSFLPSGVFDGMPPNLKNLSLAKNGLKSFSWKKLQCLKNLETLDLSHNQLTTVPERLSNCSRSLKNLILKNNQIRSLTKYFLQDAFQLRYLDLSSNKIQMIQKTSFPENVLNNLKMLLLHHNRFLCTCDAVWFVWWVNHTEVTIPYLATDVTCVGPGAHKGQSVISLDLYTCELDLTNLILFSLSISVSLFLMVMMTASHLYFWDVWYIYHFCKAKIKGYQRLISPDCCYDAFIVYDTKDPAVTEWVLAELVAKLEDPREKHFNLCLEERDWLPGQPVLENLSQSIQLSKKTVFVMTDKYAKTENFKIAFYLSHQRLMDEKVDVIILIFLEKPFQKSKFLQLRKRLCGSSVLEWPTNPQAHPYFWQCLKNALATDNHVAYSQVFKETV
Nature of the test: TLR7 inhibition reporter assay (HEK-Blue, SEAP). The note with it: HEK-Blue cells overexpressing human TLR7, ligand gardiquimod 2.5 μM, 22 hour incubation. On the procedure:
as §1, §2

Each structure is given as a SMILES string.

`COc1ccc(-c2nc3ncc(-c4ccc(N5CCN(C(C)C)CC5)cc4)cc3n2C)cc1OC` [Example 48, 2-(3,4-dimethoxyphenyl)-6-(4-(4-isopropylpiperazin-1-yl)phenyl)-1-methyl-1H-imidazo[4,5-b]pyridine]: the IC50 was 280 nM in test [1], 18000 nM in test [2] and 1500 nM in test [3].

In the case of `COCCN1C[C@H]2C[C@H](N3CCC(c4cc(C)c5nc(-c6ccc(OC)c(OC)c6)n(C)c5n4)CC3)C[C@H]2C1` [Example 41, 2-(3,4-dimethoxyphenyl)-5-(1-((3aR,5s,6aS)-2-(2-methoxyethyl)octahydrocyclopenta[c]pyrrol-5-yl)piperidin-4-yl)-3,7-dimethyl-3H-imidazo[4,5-b]pyridine], the values for the IC50 in test [1], in test [2] and in test [3] were 73 nM, greater than 50000 nM and 480 nM, respectively.

On to `COc1cc(-c2nc3c(C)cc(C4CCN([C@H]5C[C@@H]6CN(C7CCOCC7)C[C@@H]6C5)CC4)nc3n2C)cn2ncnc12` [Example 44, 2-(8-methoxy-[1,2,4]triazolo[1,5-a]pyridin-6-yl)-3,7-dimethyl-5-(1-((3aR,5s,6aS)-2-(tetrahydro-2H-pyran-4-yl)octahydrocyclopenta[c]pyrrol-5-yl)piperidin-4-yl)-3H-imidazo[4,5-b]pyridine], for which the IC50 is 180 nM in test [1], greater than 50000 nM in test [2] and 4500 nM in test [3].

Turning to `Cc1cc(-c2ccc(CN3CCC(N4CCOCC4)CC3)cc2)nc2c1nc(-c1ccc(S(C)(=O)=O)cc1)n2C1CC1` [Example 47, 4-(1-(4-(3-cyclopropyl-7-methyl-2-(4-(methylsulfonyl)phenyl)-3H-imidazo[4,5-b]pyridin-5-yl)benzyl)piperidin-4-yl)morpholine], the half-maximal inhibitory concentration (IC50) was 290 nM in test [1], greater than 50000 nM in test [2] and 15000 nM in test [3].

Take `COc1ccc(-c2nc3c(C)cc(C4CCN([C@H]5C[C@@H]6CN(C7CCOCC7)C[C@@H]6C5)CC4)nc3n2C)cc1OC` [Example 40, 2-(3,4-dimethoxyphenyl)-3,7-dimethyl-5-(1-(2-(tetrahydro-2H-pyran-4-yl)octahydrocyclopenta[c]pyrrol-5-yl)piperidin-4-yl)-3H-imidazo[4,5-b]pyridine]: the figures for the 50% inhibitory concentration (IC50) in test [1], in test [2] and in test [3] were 220 nM, greater than 50000 nM and 1300 nM, respectively.

As to `Cc1cc(C2CCN(C3CC4CCC(C3)N4C3CCOCC3)CC2)nc2c1nc(-c1ccc(S(C)(=O)=O)cc1)n2C` (single isomer, unassigned) [Example 34, 3,7-dimethyl-2-(4-(methylsulfonyl)phenyl)-5-(1-(8-(tetrahydro-2H-pyran-4-yl)-8-azabicyclo[3.2.1]octan-3-yl)piperidin-4-yl)-3H-imidazo[4,5-b]pyridine], the values for the IC50 in test [1], in test [2] and in test [3] were 37 nM, greater than 50000 nM and 5700 nM, respectively.

For `Cc1cc(C2CCN(C3CC4CCC(C3)N4C(C)C)CC2)nc2c1nc(-c1ccc(S(C)(=O)=O)cc1)n2C` (single isomer, unassigned) [Example 27, 5-(1-(8-isopropyl-8-azabicyclo[3.2.1]octan-3-yl)piperidin-4-yl)-3,7-dimethyl-2-(4-(methylsulfonyl)phenyl)-3H-imidazo[4,5-b]pyridine], the IC50 in test [1] came out at 300 nM; in test [2], 24000 nM; in test [3], 3700 nM.

`Cc1cc(C2CCN(C3CCN(CC(C)C)CC3)CC2)nc2c1nc(-c1ccc(S(C)(=O)=O)cc1)n2C` [Example 21, 5-(1′-isobutyl-[1,4′-bipiperidin]-4-yl)-3,7-dimethyl-2-(4-(methylsulfonyl)phenyl)-3H-imidazo[4,5-b]pyridine]: the results for the IC50 in test [1], in test [2] and in test [3] were 24 nM, greater than 50000 nM and 4400 nM, respectively.

Take `COc1ccc(-c2nc3c(C)cc(C4CCN([C@H]5C[C@@H]6CN(C(C)C)C[C@@H]6C5)CC4)nc3n2C)cc1OC` [Example 36, 2-(3,4-dimethoxyphenyl)-5-(1-((3aR,5s,6aS)-2-isopropyloctahydrocyclopenta[c]pyrrol-5-yl)piperidin-4-yl)-3,7-dimethyl-3H-imidazo[4,5-b]pyridine]: the half-maximal inhibitory concentration (IC50) was 140 nM in test [1], greater than 50000 nM in test [2] and 1000 nM in test [3].

The values above are taken from patent publication US20250177363A1, “SUBSTITUTED IMIDAZOPYRIDINYL COMPOUNDS USEFUL AS INHIBITORS OF TLR9” (Bristol-Myers Squibb Company, priority 2022, published 2025).
